Key:
Format in all cases: in vivo
[1] = test system: R318W PM 1 (R318W Human / R298W C. elegans point mutation); assay: C. elegans model growth assay (worm body area), R318W PM 1 line
Method: (§1) Five lines of GMPPA disorder models were generated in C. elegans using CRISPR/Cas9 gene editing: • One line GMPPA Human (Y47DA9.1 C. elegans) knockout (GMPPA KO) • Two lines T292P Human (S272P C. elegans) point mutation (T292P PM1, T292P PM2) • Two lines R318W Human (R298W C. elegans) point mutation (R318W PM1, R318W PM2)
(§2) These animals were tested for growth delays, temperature sensitivity, and mitotic stress sensitivity, with the dual goals of validating C. elegans as a model for studying GMPPA-CDG and identifying a robust phenotype that could be leveraged in future screening of novel pharmaceuticals for the treatment of the deleterious effects of this mutation.
(§3) To assess the effect of Compounds 1-6 on mitigating the growth deficit of C. elegans carrying a mutation in the GMPPA gene, the growth of the five mutant GMPPA C. elegans lines that were either untreated or treated with one of 6 different drugs (Compounds 1-6), at different concentrations, was measured. C. elegans were allowed to develop to the LI larval stage in the liquid solution. LI C. elegans were then placed onto plates seeded with inactivated OP50 containing the appropriate drug treatment in 0.1% DMSO, and were kept at 20° C. throughout the assay. About thirty 30 C. elegans synchronized at the LI stage of each genotype were placed onto 3 replicate plates containing the appropriate drug treatment and allowed to grow to adulthood at 20° C. Plates were imaged at the same time each day using the WormLab system (MBF Bioscience). Worm area was measured using the WormLab software. Animal sizes of each treatment were compared to sizes of untreated N2 control animals, as well as untreated animals of the same genotype on each day using ANOVA, followed by post-hoc t-tests corrected for multiple comparisons using the Benjamini-Hochberg correction procedure. Analyses were performed and plotted using custom R code.
(§4) To study the effects of the different drugs on growth, the size (body area) of animals treated with each concentration of each drug was compared to the size (body area) of untreated animals of the same genotype on the same day.

[2] = test system: GMPPA KO (GMPPA Human / Y47DA9.1 C. elegans knockout); assay: C. elegans model growth assay (worm body area), GMPPA KO line
Method: as §1, §2, §3, §4

[3] = test system: T292P PM 1 (T292P Human / S272P C. elegans point mutation); assay: C. elegans model growth assay (worm body area), T292P PM 1 line
Method: as §1, §2
as §3, with “code. […]” for “code.”

[4] = test system: R318W PM 2 (R318W Human / R298W C. elegans point mutation); assay: C. elegans model growth assay (worm body area), R318W PM 2 line
Method: as §1, §2, §3, §4

[5] = test system: T292P PM 2 (T292P Human / S272P C. elegans point mutation); assay: C. elegans model growth assay (worm body area), T292P PM 2 line; conditions: 200 nM, Young Adult
Method: as §1, §2
To assess the effect of Compounds 1-6 on mitigating the growth deficit of C. elegans carrying a mutation in the GMPPA gene, the growth of the five mutant GMPPA C. elegans lines that were either untreated or treated with one of 6 different drugs (Compounds 1-6), at different concentrations, was measured. C. elegans were allowed to develop to the LI larval stage in the liquid solution. LI C. elegans were then placed onto plates seeded with inactivated OP50 containing the appropriate drug treatment in 0.1% DMSO, and were kept at 20° C. throughout the assay. […] Worm area was measured using the WormLab software. […]

[6] = 200 μM (third concentration group), Young Adult
[7] = 20 μM (as printed, second 20 μM group, last in table), Adult (day 5)
[8] = 20 μM (as printed, second 20 μM group, last in table), Young Adult
[9] = 200 μM (third concentration group), Adult (day 5)
[10] = 200 μM (third concentration group), Adult (day 4)

Row | Compound | % Increase size (compared to untreated) ([1]; 20 nM, Adult (day 5)) [%] | % Increase size (compared to untreated) ([1]; 20 nM, L3) [%] | % Increase size (compared to untreated) ([1]; 20 nM, Young Adult) [%] | % Increase size (compared to untreated) ([1]; 200 nM, Adult (day 5)) [%] | % Increase size (compared to untreated) ([1]; 200 nM, Young Adult) [%] | % Increase size (compared to untreated) ([1]; 2 μM, Adult (day 5)) [%] | % Increase size (compared to untreated) ([1]; 2 μM, Young Adult) [%] | % Increase size (compared to untreated) ([1]; 20 μM, L3) [%] | % Increase size (compared to untreated) ([2]; 2 μM, Adult (day 4)) [%] | % Increase size (compared to untreated) [1, 7] [%] | % Increase size (compared to untreated) [1, 8] [%] | % Increase size (compared to untreated) ([1]; 20 μM, Adult (day 5)) [%] | % Increase size (compared to untreated) [1, 9] [%] | % Increase size (compared to untreated) [1, 6] [%] | % Increase size (compared to untreated) ([4]; 2 μM, Adult (day 5)) [%] | % Increase size (compared to untreated) ([4]; 2 μM, Young Adult) [%] | % Increase size (compared to untreated) [2, 10] [%] | % Increase size (compared to untreated) ([1]; 20 μM, Young Adult) [%] | % Increase size (compared to untreated) ([4]; 2 μM, Adult (day 4)) [%] | % Increase size (compared to untreated) ([4]; 20 μM, Young Adult) [%] | also measured
1 | CC(C)(C)NC(=O)[C@H]1CC[C@H]2[C@@H]3CC[C@H]4NC(=O)C=C[C@]4(C)[C@H]3CC[C@]12C [Compound 1, finasteride] | 8.79 | 12.77 | 11.59 | 7.28 | 16.92 | 9.08 | 12.70 | 10.73 | 6.47 | – | – | – | – | – | – | – | – | – | – | – | % Increase size (compared to untreated) ([1]; 200 nM, L3): 13.73%
2 | CC(O)(CS(=O)(=O)c1ccc(F)cc1)C(=O)Nc1ccc(C#N)c(C(F)(F)F)c1 (centres unmarked) [Compound 2, N-(4-cyano-3-(trifluoromethyl)phenyl)-3-((4-fluorophenyl)sulfonyl)-2-hydroxy-2-methylpropanamide] | – | – | – | – | – | 13.14 | 15.14 | – | – | 12.37 | 9.40 | 6.98 | 13.42 | 15.18 | 9.82 | 20.08 | 10.83 | – | – | – | % Increase size (compared to untreated) [3, 6]: 16.12%; % Increase size (compared to untreated) ([2]; 20 μM, Adult (day 4)): 9.60%
3 | CCn1cc(C(=O)O)c(=O)c2cnc(N3CCNCC3)nc21 [Compound 3, 8-Ethyl-5,8-dihydro-5-oxo-2-(1-piperazinyl)pyrido (2,3-d)pyrimidine-6-carboxylic acid] | – | – | – | – | – | 8.12 | 18.05 | 14.96 | 12.37 | 12.27 | 15.84 | 12.83 | 10.51 | 14.43 | – | – | 7.92 | 9.03 | 11.20 | 14.52 | % Increase size (compared to untreated) ([3]; 2 μM, Adult (day 5)): 14.96%; % Increase size (compared to untreated) ([4]; 20 μM, Adult (day 5)): 5.57%; % Increase size (compared to untreated) ([4]; 20 μM, L3): 11.65%; % Increase size (compared to untreated) ([4]; 200 μM, Adult (day 4)): 8.02%; % Increase size (compared to untreated) ([4]; 200 μM, Adult (day 5)): 5.96%; % Increase size (compared to untreated) ([2]; 2 μM, Young Adult): 12.64%
4 | Cc1nc2n(c(=O)c1CCN1CCC(c3noc4cc(F)ccc34)CC1)CCCC2O (centres unmarked) [Compound 4, 3-(2-(4-(6-fluorobenzo[d]isoxazol-3-yl)piperidin-1-yl)ethyl)-9-hydroxy-2-methyl-6,7,8,9-tetrahydro-4H-pyrido[1,2-a]pyrimidin-4-one] | 10.32 | – | 11.38 | 11.03 | – | 9.47 | 14.09 | – | 6.86 | – | – | 10.72 | – | – | 6.08 | – | – | – | – | – | % Increase size (compared to untreated) ([3]; 20 μM, Adult (day 5)): 6.70%; % Increase size (compared to untreated) ([4]; 200 nM, Adult (day 4)): 8.35%; % Increase size (compared to untreated) ([2]; 20 nM, Adult (day 4)): 7.18%
5 | C[C@H](NCc1ccc(OCc2cccc(F)c2)cc1)C(N)=O [Compound 5, (S)-2-((4-((3-fluorobenzyl)oxy)benzyl)amino) propanamide] | 11.09 | – | – | 9.35 | – | 9.47 | 16.21 | – | – | – | – | – | – | – | 5.51 | – | – | – | – | – | % Increase size (compared to untreated) ([1]; 2 μM, L3): 16.41%
6 | Cc1ccc2c([nH]c(=O)c3c(=O)cc(C(=O)OCCC(C)C)oc32)c1C [Compound 6, 3-methylbutyl 7,8-dimethyl-4,5-dioxo-6H-pyrano[3,2-c]quinoline-2-carboxylate] | 11.15 | 18.59 | 27.26 | 12.15 | 18.38 | 7.41 | 16.84 | 13.93 | 6.58 | – | – | 10.80 | – | – | – | 18.25 | – | 18.41 | 8.97 | 22.20 | % Increase size (compared to untreated) [5]: 13.63%; % Increase size (compared to untreated) ([4]; 20 nM, Young Adult): 20.62%; % Increase size (compared to untreated) ([4]; 200 nM, Adult (day 4)): 7.96%; % Increase size (compared to untreated) ([4]; 200 nM, Young Adult): 25.23%; % Increase size (compared to untreated) ([2]; 20 μM, Young Adult): 13.22%

Reference: US20240398835A1, “METHODS FOR TREATING CONGENITAL DISORDERS OF GLYCOSYLATION” (priority 2023, published 2024)
